The values below come from US6900193B1, “Structural modification of 19-norprogesterone I: 17-α-substituted-11-β-substituted-4-aryl and 21-substituted 19-norpregnadienedione as new antiprogestational agents” (The United States of America as represented by the …, priority 1996, dated 2005).

“Also recorded” adds a separate entry of the source. Where only a bound is given, the exact number is not on record here.

Assay [1] concerns progesterone-induced endometrial proliferation. The assay can be described thus: AntiMcGinty test. Format: in vivo, rabbit. Conditions: relative potency, CDB-2914 = 100 (assigned); intraluminal, rabbit. As to the method:
AntiMcGinty Test (McGinty, et al., Endocrinology, 24:829-832 (1939))
Immature female rabbits of the New Zealand White breed (approx. 1 kg body weight) were maintained under standard laboratory conditions and received a subcutaneous injection of 5 μg estradiol in 10% ethanol/sesame oil daily for 6 consecutive days. Twenty-four hours after the last injection of estradiol (day 7) animals underwent sterile abdominal surgery to ligate a 3-4 cm segment of both uterine horns. The experimental compound in appropriate solvent (usually 10% ethanol/sesame oil) was injected intraluminally into the ligated segment of one uterine horn and the vehicle alone into the ligated segment of the contralateral horn. Injection volume was limited to 0.1 ml, and care was taken to prevent leakage. A stimulating dose of progesterone (0.8 mg/day) was administered subcutaneously to each rabbit daily for the next three days (days 7, 8 and 9) for the purpose of inducing endometrial proliferation. All animals were sacrificed on day 10 when a segment central to the ligatures was removed and fixed in 10% neutral buffered formalin and submitted for histological processing. Five micron sections stained with hematoxylin and eosin (H&E) were evaluated microscopically for the degree of endometrial glandular proliferation according to the method of McPhail (McPhail, J. Physiol., 83:145 (1934). The percent inhibition of endometrial proliferation for each rabbit was calculated and the mean of the group of five animals recorded.

The target of assay [2] is T1, glucocorticoid receptor (estrogen-primed rabbit thymus) (Oryctolagus cuniculus, UniProt P59667).
T1 construct: preparation of cytosols for the progesterone and glucocorticoid receptor assays; from tissue; host or cells: thymus of estradiol-primed immature female New Zealand White rabbits (cytosol)
T1 sequence (P59667 1-772): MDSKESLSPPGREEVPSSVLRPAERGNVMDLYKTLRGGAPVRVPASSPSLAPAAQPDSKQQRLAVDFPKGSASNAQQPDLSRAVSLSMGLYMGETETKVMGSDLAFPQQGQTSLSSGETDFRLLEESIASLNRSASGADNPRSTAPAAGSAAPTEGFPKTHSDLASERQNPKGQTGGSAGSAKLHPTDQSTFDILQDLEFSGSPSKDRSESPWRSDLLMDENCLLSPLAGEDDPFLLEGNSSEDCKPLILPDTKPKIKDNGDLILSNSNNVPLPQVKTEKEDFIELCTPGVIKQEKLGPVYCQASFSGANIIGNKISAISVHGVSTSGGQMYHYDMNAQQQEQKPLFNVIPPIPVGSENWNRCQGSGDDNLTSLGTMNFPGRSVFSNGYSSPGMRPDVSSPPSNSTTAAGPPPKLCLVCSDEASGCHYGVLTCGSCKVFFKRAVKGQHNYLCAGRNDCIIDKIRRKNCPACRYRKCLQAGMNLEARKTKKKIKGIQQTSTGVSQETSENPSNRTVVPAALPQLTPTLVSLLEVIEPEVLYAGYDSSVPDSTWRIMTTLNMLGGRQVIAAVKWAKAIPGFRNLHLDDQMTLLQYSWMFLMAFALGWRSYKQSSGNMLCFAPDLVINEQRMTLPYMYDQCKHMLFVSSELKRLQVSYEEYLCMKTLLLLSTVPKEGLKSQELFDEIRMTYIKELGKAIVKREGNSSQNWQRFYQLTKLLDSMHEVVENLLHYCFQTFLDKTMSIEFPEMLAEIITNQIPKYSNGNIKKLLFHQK
The assay can be described thus: Relative binding affinity, glucocorticoid receptor. The settings on record: for RELATIVE BINDING AFFINITY Glucocorticoid / BINDING AFFINITY Glucocortic: estrogen-primed rabbit thymus, dexamethasone = 100%; for BINDING AFFINITY Glucocortic: Table 2. As to the method:
(§1) Relative Binding Affinities for the Progesterone and Glucocorticoid Receptors
(§2) Uteri and thymus glands were obtained from estradiol-primed immature female rabbits of the New Zealand White strain for preparation of cytosols for the progesterone and glucocorticoid receptor assays, respectively. Tissues were excised and immediately placed in ice cold TEGDM buffer (10 mM Tris, pH 7.4; 1.5 mM EDTA; 10% glycerol vol/vol/; 1 mM dithiothreitol [DTT]; and 20 mM sodium molybdate). The tissues were dissected free of connective tissue and fat, weighed and minced finely. Minced tissues were homogenized in 3 volumes TEGDM/gm with four 10 second bursts of a VirTis Cyclone set at half maximum speed with a 30 second cooling period (in ice) between bursts. Homogenates were centrifuged at 109,663 g at 4° C. for 1 hour to yield the soluble cytosol fiction. Aliquots of cytosol were snap frozen and stored at −75° C.
(§3) All binding assays were carried out at 2-6° C. for 16-18 hours. The following radioactive ligands were used: [1,2-^3H(N)]-progesterone (50.0 Ci/mmole) for the progesterone receptor (PR). […] For the progesterone receptor RBA assays 0.02 ml uterine cytosol or TEDGM buffer, 0.05 ml of various concentrations of test compounds or progesterone, 0.13 ml TEGDM buffer and 0.05 ml [^3H]-progesterone were added to duplicate tubes. For the glucocorticoid receptor RBA assays 0.1 ml thymus cytosol or TEDGM buffer, 0.05 ml of various concentrations of test compounds or dexamethasone, 0.05 ml TEGDM buffer and 0.05 ml [3H]-dexamethasone were added to duplicate tubes. For the estrogen receptor RBA assays 0.05 ml uterine cytosol, 0.1 ml TEGDM buffer, 0.05 ml of various concentrations of test compounds or estradiol and 0.05 ml [^3H]-estradiol were added to duplicate tubes. The concentrations of the test compounds, progesterone, dexamethasone and estradiol ranged from 0.05 to 100 nM and the concentrations of the competitors ranged from 0.5 to 500 nM. Total binding was measured at radioligand concentrations of 3.5 nM and nonspecific binding was measured in the presence of a 200-fold excess of unlabeled progesterone (PR), dexamethasone (GR) or diethylstilbestrol (ER), respectively.
(§4) In all incubations bound and free ligand were separated using dextra-coated charcoal (DCC). A 0.1 ml aliquot of DCC (0.5% charcoal/0.05% Dextran T-70) was added to each tube. The tubes were vortexed and incubated on ice for 10 minutes. Five-tenths ml TEG buffer (without DTT or molybdate) was then added to all tubes to improve supernatant recovery following centrifugation. The charcoal was pelleted by centrifugation at 2,100 g for 15 minutes at 4° C. The supernatants containing the [^3H]-steroid receptor complexes were decanted into vials containing 4 ml Optifluor (Packard Instrument Co.), vortexed, equilibrated in a liquid scintillation counter for 30 minutes and then counted for 2 minutes. This provided the quantity of receptor bound [^3H]-steroid at each competitor concentration.

The target of assay [3] is T2, progesterone receptor (estrogen-primed rabbit uterus) (Oryctolagus cuniculus, UniProt P06186).
T2 construct: preparation of cytosols for the progesterone and glucocorticoid receptor assays; from tissue; host or cells: uterus of estradiol-primed immature female New Zealand White rabbits (cytosol)
T2 sequence (P06186 1-930): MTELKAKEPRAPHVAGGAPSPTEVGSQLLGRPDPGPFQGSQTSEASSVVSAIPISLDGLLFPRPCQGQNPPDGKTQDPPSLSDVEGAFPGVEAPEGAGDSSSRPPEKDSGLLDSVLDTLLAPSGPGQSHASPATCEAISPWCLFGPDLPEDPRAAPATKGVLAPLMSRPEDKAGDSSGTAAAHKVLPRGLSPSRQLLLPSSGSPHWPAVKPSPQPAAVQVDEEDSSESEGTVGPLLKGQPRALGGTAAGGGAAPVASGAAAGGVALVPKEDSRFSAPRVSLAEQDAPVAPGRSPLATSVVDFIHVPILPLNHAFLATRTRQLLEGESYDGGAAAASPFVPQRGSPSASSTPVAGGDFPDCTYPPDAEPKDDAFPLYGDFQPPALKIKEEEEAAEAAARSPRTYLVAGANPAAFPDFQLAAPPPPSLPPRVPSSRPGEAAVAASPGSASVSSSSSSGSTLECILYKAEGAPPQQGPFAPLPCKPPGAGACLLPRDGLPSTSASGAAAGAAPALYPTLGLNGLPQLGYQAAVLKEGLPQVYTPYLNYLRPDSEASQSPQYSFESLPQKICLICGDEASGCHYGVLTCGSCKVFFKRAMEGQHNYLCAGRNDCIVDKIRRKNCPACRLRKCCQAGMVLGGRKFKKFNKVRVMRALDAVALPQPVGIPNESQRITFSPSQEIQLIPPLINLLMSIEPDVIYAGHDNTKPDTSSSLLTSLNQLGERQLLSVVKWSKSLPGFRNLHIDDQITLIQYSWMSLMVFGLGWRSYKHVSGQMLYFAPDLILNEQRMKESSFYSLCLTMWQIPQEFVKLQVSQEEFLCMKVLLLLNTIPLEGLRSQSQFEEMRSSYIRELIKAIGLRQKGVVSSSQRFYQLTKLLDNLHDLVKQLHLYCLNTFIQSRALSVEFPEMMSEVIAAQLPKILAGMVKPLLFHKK
The assay is described as follows: Relative binding affinity, progesterone receptor. The settings on record: for RELATIVE BINDING AFFINITY Progesterone / BINDING AFFINITY Progester: estrogen-primed rabbit uterus, progesterone = 100%; for BINDING AFFINITY Progester: Table 2; for binding affinities compared with the standard, compound 69B: progesterone receptor implied (rabbit or human isoform A not specified). Here is the method:
as §1, §2, §3, §4

Assay [4] deals with progesterone-induced endometrial proliferation. The assay is described as follows: AntiClauberg test. It counts as in vivo, rabbit. More on the design: key to ANTIPROGESTATIONAL Anti-Clauberg: relative oral potency vs. reference compound set to 100. The settings on record: for ANTIPROGESTATIONAL Anti-Clauberg: relative potency; for ANTIPROGESTATIONAL Anti-Clauberg / BIOLOGICAL ACTIVITY antiClauberg: CDB-2914 = 100 (assigned); for antiClauberg / oral antiprogestational activity, in words: versus the standard 69B; for BIOLOGICAL ACTIVITY antiClauberg: Table 2. Here is the method:
AntiClauberg Test (Clauberg, C., Zentr. Gynakol., 54:2757-2770 (1930)) Immature female rabbits of the New Zealand White breed (approx. 1 kg body weight) were maintained under standard laboratory conditions and received a subcutaneous injection of 5 μg estradiol in 10% ethanol/sesame oil daily for 6 consecutive days. Twenty-four hours after the last dose of estradiol (day 7) animals received progesterone by subcutaneous injection (0.8 mg/day) and the experimental compound in appropriate vehicle (usually 10% ethanol/sesame oil) orally or subcutaneously for five consecutive days. One group of rabbits received progesterone only. Twenty-four hours after the last dose all animals were sacrificed for removal of the uterus which was cleaned of all fat and connective tissue, weighed to the nearest 0.2 mg and placed in 10% neutral buffered formalin for subsequent histological processing. Five micron sections stained with hematoxylin and eosin (H&E) were evaluated microscopically for the degree of endometrial glandular proliferation according to the method of McPhail (McPhail, supra). The percent inhibition of endometrial proliferation at each dose level of the experimental compound was derived by comparison with the progesterone-stimulated animals alone.

Regarding `CC(=O)SCC(=O)C1(O)CCC2C3CCC4=CC(=O)CCC4=C3C(c3ccc(N(C)C)cc3)CC21C` (stereo not shown) [Compound 16], the “ANTIPROGESTATIONAL Anti-McGinty” value in assay [1] was greater than 2. For the same compound, the “RELATIVE BINDING AFFINITY Glucocorticoid” value in assay [2] worked out at 77%. Besides, the “RELATIVE BINDING AFFINITY Progesterone” value in assay [3] worked out at 6%.
Regarding `CC(=O)O[C@]1(C(=O)COC(=O)CCC2CCCC2)CC[C@H]2[C@@H]3CCC4=CC(=O)CCC4=C3[C@@H](c3ccc(N(C)C)cc3)C[C@@]21C` [Compound 40, 17α-acetoxy-21-(3′-cyclopentylpropionyloxy)-11β-[4-(N,N-dimethylamino)phenyl]-19-norpregnadiene-3,20 dione], the “RELATIVE BINDING AFFINITY Glucocorticoid” value in assay [2] is listed as 37%. In addition, in assay [4] (oral), the “ANTIPROGESTATIONAL Anti-Clauberg” value is given as 155 and the “antiClauberg / oral antiprogestational activity, in words” value is listed as “greater activity than the standard”. Also, the “more potent in the antiClauberg test than the lead compound” value in assay [4] (versus CDB-2914) was “about 50%”. For the same compound, the “RELATIVE BINDING AFFINITY Progesterone” value in assay [3] is 74%.
Take `CC(=O)O[C@]1(C(C)=O)CC[C@H]2[C@@H]3CCC4=CC(=O)CCC4=C3[C@@H](c3ccc(N4CCOCC4)cc3)C[C@@]21C` [Compound 72, 17α-Acetoxy-11β-[4-(N-Morpholino)phenyl]-19-norpregna-4,9-diene-3,20-dione]: the “BINDING AFFINITY Glucocortic” value in assay [2] was 110%. In addition, the “BIOLOGICAL ACTIVITY antiClauberg” value in assay [4] (oral) worked out at 35. Further, in assay [3], the “BINDING AFFINITY Progester” value came out at 109% and the “binding affinities compared with the standard, compound 69B” value is “binding affinities greater than that observed for the standard”.
For the compound “17α-Acetoxy-11β-[4-(N,N-diethylamino)phenyl]-21-thiocyanato-19-norpregna-4,9-diene-3,20-dione [Compound 138]”, the “BINDING AFFINITY Glucocortic” value in assay [2] came to 14%. Further, the “BIOLOGICAL ACTIVITY antiClauberg” value in assay [4] (oral) is recorded as 57. Besides, in assay [3], the “BINDING AFFINITY Progester” value worked out at 63%.
On the same counts, the results for `COC1(C(C)=O)CCC2C3CCC4=CC(=O)CCC4=C3C(c3ccc(N4CCCCC4)cc3)CC21C` (stereo not drawn) [Compound 97b, 17α-Methoxy-1-[4-(piperidino)phenyl]-19-norpregna-4,9-diene-3,20-dione] are 38%, 99 and 47%.
Take `COCC(=O)[C@@]1(OC(C)=O)CC[C@H]2[C@@H]3CCC4=CC(=O)CCC4=C3[C@@H](c3ccc(N(C)C)cc3)C[C@@]21C` [Compound 38, 17α-acetoxy-21-methoxy-11β-(4-N,N-dimethylaminophenyl)-19-norpregna-4,9-diene-3,20-dione]: the “RELATIVE BINDING AFFINITY Glucocorticoid” value in assay [2] is listed as 52%. In addition, the “binding affinity for the glucocorticoid receptor, in words” value in assay [2] (rabbit thymus, versus CDB-2914 (69B) where stated) is reported as “substantial reduction in glucocorticoid binding affinity; also recorded: low binding affinity”. For the same compound, in assay [4] (oral), the “ANTIPROGESTATIONAL Anti-Clauberg” value turned out to be 361 and the “antiClauberg / oral antiprogestational activity, in words” value is listed as “greater activity than the standard”. For the same compound, the “antiprogestational potency compared to the lead compound (CDB-2914), oral antiClauberg test” value in assay [4] (oral, versus CDB-2914) was found to be 3.61 times. Further, in assay [3], the “RELATIVE BINDING AFFINITY Progesterone” value came out at 103% and the “binding affinities compared with the standard, compound 69B” value is given as “binding affinities greater than that observed for the standard”.
